The results in this text go back to patent US20040220268A1, “Compound that directly stimulates phospholipase C activity” (priority 2003, published 2004).

The target of one assay is T1, PLC γ2 (Homo sapiens, UniProt P16885).
T1 sequence (P16885 1-1265): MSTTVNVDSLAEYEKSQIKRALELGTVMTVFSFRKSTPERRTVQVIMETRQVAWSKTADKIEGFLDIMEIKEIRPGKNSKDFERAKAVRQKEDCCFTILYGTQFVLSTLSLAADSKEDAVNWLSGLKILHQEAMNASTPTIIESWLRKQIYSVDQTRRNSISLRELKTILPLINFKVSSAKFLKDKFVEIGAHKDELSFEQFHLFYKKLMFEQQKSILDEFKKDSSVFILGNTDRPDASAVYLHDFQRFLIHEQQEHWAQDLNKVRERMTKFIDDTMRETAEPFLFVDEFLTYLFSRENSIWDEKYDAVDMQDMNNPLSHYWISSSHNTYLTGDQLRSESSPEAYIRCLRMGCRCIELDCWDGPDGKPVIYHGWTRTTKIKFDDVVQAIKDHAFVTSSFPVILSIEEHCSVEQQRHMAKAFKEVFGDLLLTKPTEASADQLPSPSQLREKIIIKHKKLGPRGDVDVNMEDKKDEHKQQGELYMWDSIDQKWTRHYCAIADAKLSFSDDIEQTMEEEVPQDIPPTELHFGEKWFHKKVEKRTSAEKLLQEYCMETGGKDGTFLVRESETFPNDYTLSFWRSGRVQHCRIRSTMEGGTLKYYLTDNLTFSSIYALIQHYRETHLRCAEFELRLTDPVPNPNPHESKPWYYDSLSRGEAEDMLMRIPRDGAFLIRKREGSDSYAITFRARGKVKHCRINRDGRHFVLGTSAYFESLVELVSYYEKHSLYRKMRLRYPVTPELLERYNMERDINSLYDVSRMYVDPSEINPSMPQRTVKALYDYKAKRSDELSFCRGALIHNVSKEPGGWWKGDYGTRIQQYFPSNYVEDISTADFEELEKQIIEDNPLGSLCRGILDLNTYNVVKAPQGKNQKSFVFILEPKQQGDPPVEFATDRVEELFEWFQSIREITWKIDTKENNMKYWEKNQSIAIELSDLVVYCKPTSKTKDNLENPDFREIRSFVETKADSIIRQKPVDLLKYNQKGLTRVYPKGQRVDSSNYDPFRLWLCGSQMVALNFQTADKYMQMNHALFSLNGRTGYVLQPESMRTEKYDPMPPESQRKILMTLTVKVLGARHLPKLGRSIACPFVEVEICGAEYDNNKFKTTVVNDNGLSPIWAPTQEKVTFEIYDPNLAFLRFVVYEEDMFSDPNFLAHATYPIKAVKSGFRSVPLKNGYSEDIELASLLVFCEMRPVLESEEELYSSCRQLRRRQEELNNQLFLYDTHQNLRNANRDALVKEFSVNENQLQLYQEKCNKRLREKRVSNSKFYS
Briefly: Phosphoinositide hydrolysis in vitro. It counts as biochemical. Conditions: 25 μM; purified isozyme. On the procedure: (§1) The hydrolyzing activity of PtdIns-4,5-P2 was measured on mixed phospholipid vesicles containing 120 μM phosphatidylethanolamine, 30 μM PtdIns-4,5-P2, and 1 μCi/ml [3H] PtdIns-4,5-P2. Purified PLC β2, substrates, and the chemicals (2.5, 5, 10, 20, and 25 μM of m-3M3FBS or of o-3M3FBS) were coincubated (A), 25 μM of m-3M3FBS or o-3M3FBS, and phospholipid substrates were mixed with purified PLC β3, γ1, 2, or δ1 (B). Reactions were performed for 10 min at 37° C. in a 200 μl reaction mixture containing lipid micelles (5 μM [^3H] PtdIns-4,5-P2, 20,000 cpm). Reactions were stopped by adding 1 ml of CHCl3:CH3OH:HCl (50:50:0.3, v/v/v). Inositol trisphosphates were extracted with 0.5 ml of 1 M HCl/5 mM EGTA, and the radioactivity in the upper aqueous phase was measured. Data are presented as means ±S. E. M. of three independent experiments (A, B).
(§2) PLC activity was assayed using [^3H] PtdIns-4,5-P2 as a substrate (Min et al., 1993). PtdIns-4,5-P2-hydrolyzing activity was measured with mixed phospholipid micelles containing 120 μM phosphatidylethanolamine, 30 μM PtdIns-4,5-P2, and 1 μCi/ml [^3H] PtdIns-4,5-P2. The lipids, in chloroform, were dried under a stream of nitrogen gas, suspended in assay buffer (20 mM HEPES pH 7.0, 120 mM NaCl, 2 mM MgCl2, 40 or 100 μM CaCl2, and 1 mg/ml bovine albumin serum (Bayer, Leverkusen, Germany)), and sonicated. All proteins added to the reaction mixture were dialyzed overnight against the assay buffer. Incubation was performed for 10 min at 37° C. in a 200 μl reaction mixture containing lipid micelles (5 μM [3H] PtdIns-4,5-P2, 20,000 cpm). The reaction was stopped by adding 2 ml of CHCl3: CH3OH: HCl (50: 50: 0.3, v/v/v). The inositol triphosphates were extracted with 0.5 ml of 1 N HCl, and radioactivities in the upper aqueous phase were measured.

In another assay the target is T2, PLC δ1 (Homo sapiens, UniProt P51178).
T2 sequence (P51178 1-756): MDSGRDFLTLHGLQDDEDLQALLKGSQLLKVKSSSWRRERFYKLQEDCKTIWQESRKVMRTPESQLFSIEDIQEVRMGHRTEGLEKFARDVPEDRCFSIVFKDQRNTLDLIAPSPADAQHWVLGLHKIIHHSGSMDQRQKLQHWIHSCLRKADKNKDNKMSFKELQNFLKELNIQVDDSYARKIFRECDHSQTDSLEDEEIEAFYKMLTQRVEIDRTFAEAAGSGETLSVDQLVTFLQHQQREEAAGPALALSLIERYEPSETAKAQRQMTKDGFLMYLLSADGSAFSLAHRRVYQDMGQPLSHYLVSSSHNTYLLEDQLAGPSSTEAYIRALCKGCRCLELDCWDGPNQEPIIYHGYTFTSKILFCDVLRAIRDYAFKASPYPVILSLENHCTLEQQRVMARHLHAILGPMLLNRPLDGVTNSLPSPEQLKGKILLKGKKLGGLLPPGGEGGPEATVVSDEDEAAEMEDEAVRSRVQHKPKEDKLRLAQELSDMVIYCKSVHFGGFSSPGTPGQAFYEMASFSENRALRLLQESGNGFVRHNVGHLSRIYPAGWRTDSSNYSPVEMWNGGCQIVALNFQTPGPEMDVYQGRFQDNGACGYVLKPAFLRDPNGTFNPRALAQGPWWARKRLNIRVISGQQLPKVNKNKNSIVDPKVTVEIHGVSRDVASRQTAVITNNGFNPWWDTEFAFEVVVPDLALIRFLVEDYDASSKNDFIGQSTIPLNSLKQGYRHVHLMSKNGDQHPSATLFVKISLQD
Briefly: Phosphoinositide hydrolysis in vitro. The conditions noted are these: 25 μM; purified isozyme. The class given is biochemical. On the procedure:
as §1, §2

On to `Cc1cc(C)c(S(=O)(=O)Nc2cccc(C(F)(F)F)c2)c(C)c1` [m-3M3FBS, 2,4,6-Trimethyl-N-(meta 3-trifluoromethyl-phenyl)-benzenesulfonamide], for which the “activity of PLC gamma2” value on PLC γ2 is on record as “augmented the activity”. For the same compound, on PLC δ1, the “activity of PLC delta1” value is listed as “augmented the activity”.
Turning to `Cc1cc(C)c(S(=O)(=O)Nc2ccccc2C(F)(F)F)c(C)c1` [o-3M3FBS, 2,4,6-Trimethyl-N-(ortho 3-trifluoromethyl-phenyl)-benzenesulfonamide, reference compound], on PLC γ2, the “activity of PLC gamma2” value is listed as “did not affect”. The “activity of PLC delta1” value at PLC δ1 was “did not affect”.
